Entries after “also recorded” stand apart in the source; their conditions may differ.
Tests used:
[1] = tested on: human skin fibroblast cell line (normal human dermal fibroblasts, neonatal); test: Fibroblast proliferative response, 96-well Cell Titer 96 Aqueous One assay (Example 2, FIG. 2, Table 2); assay type: cell-based; conditions: for effect on cellular proliferation (in words): 5 and 10 ul, versus serum-free DMEM control, one-way ANOVA; for Mean (spectrophotometric absorbance at 490 nm) / Median (spectrophotometric absorbance at 490 nm): 28 hours incubation, n=5, Table 2
Description: A stock solution of CNA was prepared with chitosan (0.0297M) and equimolar amounts of ascorbic acid and niacinamide (0.01649M) in water. Test solutions of equimolar ascorbic acid and niacinamide (0.01649M) were prepared separately in water. All the compounds were tested at two doses, 5 and 10 ul with n=5. DMEM was used as a negative control (n=5). The proliferative response of CNA, ascorbic acid and niacinamide, on the human skin fibroblast cell line (Clonetics, Walkersville, Md., normal human dermal fibroblasts, neonatal) was measured in a 96-well assay system using serum-free DMEM (Dulbecco's Modified Eagle's Medium, Sigma Chemical Co.) as a control. Cells were seeded into 96 well plates at a concentration of 1×10^2 cells in 100 μl of DMEM containing 10% fetal bovine serum (FBS, Sigma Chemical Co., St. Louis, Mo.). Plates were incubated for 24 hours at 37° C. in a humidified 5% CO2 atmosphere. After incubation, the medium was aspirated and the wells were rinsed twice with 100 μl of serum-free DMEM. The final rinse was aspirated and 100 ul DMEM serum was added to each well before adding test compounds. All wells were incubated for 28 hours at 37° C. in a humidified, 5% CO2 atmosphere. After incubation, 20 μl of Cell Titer 96 Aqueous One Solution (Promega) was added to all wells. The plates were swirled gently and placed back in the incubator for 90 minutes and spectrophotometric absorbance was read at 490 nm. Statistical analysis of data was performed by using one-way ANOVA. P<0.05 is considered significant while P<0.001 is considered as very very significant.

[2] = tested on: human skin fibroblast cell line (normal human dermal fibroblasts, neonatal); test: Fibroblast proliferative response, 96-well Cell Titer 96 Aqueous One assay (Example 1, FIG. 1, Table 1); assay type: cell-based; conditions: for Mean (spectrophotometric absorbance at 490 nm) / Median (spectrophotometric absorbance at 490 nm): 28 hours incubation, n=5, Table 1; for cell growth / cell density (OD), FIG. 1: control OD about 0.6
Description: A human skin fibroblast cell line was obtained from Clonetics (Walkersville, Md., normal human dermal fibroblasts, neonatal). Stock solutions of CNA were prepared with chitosan (0.0297M, degree of deacetylation 78.8%, Vanson Inc.) and equimolar amounts of ascorbic acid and niacinamide (0.01649M, Sigma Chemical Co.) in water. Test solutions of chitosan (0.0297M) and niacinamide ascorbate (0.01649M) were separately prepared. All the compounds were tested at two doses, 5 and 10 ul with n=5. DMEM was used as a negative control (n=5). The proliferative response of CNA, chitosan and NA, on the human skin fibroblast cell was measured in a 96-well assay system using serum-free DMEM (Dulbecco's Modified Eagle's Medium, Sigma Chemical Co.) as a control. Cells were seeded into 96 well plates at a concentration of 1×10^3 cells in 100 μl of DMEM containing 10% fetal bovine serum (FBS, Sigma Chemical Co., St. Louis, Mo.). Plates were incubated for 24 hours at 37° C. in a humidified 5% CO2 atmosphere. After incubation, the medium was aspirated and the wells were rinsed twice with 100 μl of serum-free DMEM. The final rinse was aspirated and 100 ul DMEM serum was added to each well before adding test compounds. All wells were incubated for 28 hours at 37° C. in a humidified, 5% CO2 atmosphere. After incubation, 20 μl of Cell Titer 96 Aqueous One Solution (Promega) was added to all wells. The plates were swirled gently and placed back in the incubator for 90 minutes and spectrophotometric absorbance was read at 490 nm. Statistical analysis of data was performed by using one-way ANOVA. P<0.05 is considered significant while P<0.001 is considered as very very significant.

[3] = group suffix 1 (doses were 5 and 10 ul)
[4] = group suffix 2 (doses were 5 and 10 ul)

Compound: O=C1O[C@H]([C@@H](O)CO)C(O)=C1O [Ascorbic acid, ascorbic acid]
- effect on cellular proliferation (in words) [1]: some cell proliferating activity
- Mean (spectrophotometric absorbance at 490 nm) [1, 3]: 0.4002
- Median (spectrophotometric absorbance at 490 nm) [1, 3]: 0.3990
- Mean (spectrophotometric absorbance at 490 nm) [1, 4]: 0.4598
- Median (spectrophotometric absorbance at 490 nm) [1, 4]: 0.4510

Compound: NC(=O)c1cccnc1.O=C1O[C@H]([C@@H](O)CO)C(O)=C1O [NA, niacinamide ascorbate]
- effect on fibroblast growth / proliferation (in words) ([2]; 5 and 10 ul, versus serum-free DMEM control, one-way ANOVA): appeared to inhibit cellular growth in a dose dependent manner; also recorded: appears depress fibroblast cell growth
- Mean (spectrophotometric absorbance at 490 nm) ([2]; 5 ul dose): 0.5650
- Median (spectrophotometric absorbance at 490 nm) ([2]; 5 ul dose): 0.5630
- cell growth / cell density (OD), FIG. 1 ([2]; 5 μl): about 0.58
- Mean (spectrophotometric absorbance at 490 nm) ([2]; 10 ul dose): 0.4826
- Median (spectrophotometric absorbance at 490 nm) ([2]; 10 ul dose): 0.4870
- cell growth / cell density (OD), FIG. 1 ([2]; 10 μl): about 0.50

Compound: NC(=O)c1cccnc1 [Niacinamide, niacinamide]
- effect on cellular proliferation (in words) [1]: did not show any statistical difference
- Mean (spectrophotometric absorbance at 490 nm) [1, 3]: 0.3108
- Median (spectrophotometric absorbance at 490 nm) [1, 3]: 0.3140
- Mean (spectrophotometric absorbance at 490 nm) [1, 4]: 0.3048
- Median (spectrophotometric absorbance at 490 nm) [1, 4]: 0.3070

— patent US7419655B2, “Skin care products” (Kimberly-Clark Worldwide, Inc., priority 2002, dated 2008)
